Read-outs that look alike come from different tables or passages of the source.
Key:
[1] = tested on: A375 human melanoma xenograft; settings: for survivors (FIG. 10 comparison): I.P.
From the text: The following study evaluates two intravenous formulations according to the present invention against human tumor xenografts in athymic nude mice. […] Examples 1 and 2 describe the compositions of IDD-P (FIG. 1; formulation 1-F) and IDD-D respectively.
Husbandry: Female nude mice were 16 weeks of age (NCR-nufBr; Taconic Farms) for the A375 study. The mice were fed ad libitum water (reverse osmosis, 1 ppm C1) and autoclaved Prolab NIH-31 M/5% Rodent Diet consisting of 18% protein, 5% fat, 6% fiber, and 8% ash. Mice were housed in static microisolators on a 12-hour light cycle at 21-22° C. (70-72° F.) and 40%-60% humidity. The animal care and use program is AAALAC International accredited and specifically follows and complies with the recommendation of the National Research Council's Guidefor the Care and Use of Laboratory Animals.
Tumor Implantation: An A375 melanoma fragment (1 mm 3) was implanted subcutaneously in the flank of each nude mouse. When the tumors reached the 60-112 mg size range, the mice were sorted into treatment groups (on Day 1) such that the group mean tumor sizes ranged from 71.3 mg-72.5 mg. Estimated tumor weight was calculated using the formula: [formula]
CAMPTOSAR®, DTIC®, and HYCAMTIN® were obtained as the marketed drugs and solutions were prepared fresh on the day of dosing. CAMPTOSAR® (irinotecan, Phannacia & Upjohn Company, 20 mg/ml) and DTIC® (dacarbazine, Bayer Corporation, 20 mg/ml) were diluted with D5W. HYCAMTIN® (topotecan, SmithKlein Beecham) was reconstituted with water at 1 mg/ml.
Treatments: Volumes of 0.20 ml per 20-g mouse, body-weight adjusted, were administered once daily. Tumor-bearing athymic nude mice were matched on Day 1 into 13 groups of ten animals and drug administration was initiated. […] Three reference drugs were administered I.P.: CAMPTOSAR® was given in three doses at weekly intervals (qwk×3); HYCAMTIN® was given in four doses at four-day intervals (q4d×4); and DTIC® was given in five consecutive daily doses (qd×5). The tumor growth control group for these reference treatments received no treatment (Group 1).
Tumor Growth Endpoint: The tumor growth delay (TGD) method was used to assess efficacy. Tumor dimensions were measured twice weekly until the experiment was terminated on Day 62. Each animal was euthanized as a “cancer death” when its A375 melanoma reached a size of 2.0 g. Mean Day of Survival (MDS) values for all groups were based on the calculated day of death of each mouse, which is given by the formula: [formula]
TGD values, which represent treatment-effected extensions of survival time, were calculated from MDStreated−MDScontrol, the difference in MDS value for a given treatment group and the MDS value for A375 melanoma-bearing mice that received no treatment or the corresponding vehicle.
At the termination of the experiment on Day 62, treatment responses in survivors were classified as either complete tumor regression (CR), partial tumor regression (PR), or stable/progressive disease (SD/PD). A CR response indicates the absence of measurable tumor. In a PR response, the final tumor weight is lower than on Day 1 but larger than 0 mg. In a SD/PD response, mice survived to Day 62 with a progressively growing or stable tumor size that had not reached the 2.0-g endpoint.
Evaluation of Toxicity: The maximum tolerated dose (MTD), as defined by the NCI, is the highest dose at which no more than 10% of the animals die and the group mean body-weight loss is no more than 20%. Body weights were measured daily for four or five days and then twice weekly thereafter until the experiments were terminated on Day 62 of the study. The animals were also examined frequently for clinical signs of any adverse, drug-related side effects. Because mice are not tagged for MTD studies, only the mean group body weights recorded in the appended raw data are significant in those studies.

[2] = cited from earlier work
[3] = molecular target: human serum albumin (HSA) (Homo sapiens, UniProt P02768); settings: PBS at pH 7.4; cited from earlier work
[4] = human plasma, pH 7.4, 37° C.; cited from earlier work
[5] = whole blood; cited from earlier work
[6] = in 3% DMA 2.0 mg/kg p.o., q3d×4
[7] = in 3% DMA 4.0 mg/kg p.o., q3d×4

Sequence of human serum albumin (HSA) (P02768 25-609): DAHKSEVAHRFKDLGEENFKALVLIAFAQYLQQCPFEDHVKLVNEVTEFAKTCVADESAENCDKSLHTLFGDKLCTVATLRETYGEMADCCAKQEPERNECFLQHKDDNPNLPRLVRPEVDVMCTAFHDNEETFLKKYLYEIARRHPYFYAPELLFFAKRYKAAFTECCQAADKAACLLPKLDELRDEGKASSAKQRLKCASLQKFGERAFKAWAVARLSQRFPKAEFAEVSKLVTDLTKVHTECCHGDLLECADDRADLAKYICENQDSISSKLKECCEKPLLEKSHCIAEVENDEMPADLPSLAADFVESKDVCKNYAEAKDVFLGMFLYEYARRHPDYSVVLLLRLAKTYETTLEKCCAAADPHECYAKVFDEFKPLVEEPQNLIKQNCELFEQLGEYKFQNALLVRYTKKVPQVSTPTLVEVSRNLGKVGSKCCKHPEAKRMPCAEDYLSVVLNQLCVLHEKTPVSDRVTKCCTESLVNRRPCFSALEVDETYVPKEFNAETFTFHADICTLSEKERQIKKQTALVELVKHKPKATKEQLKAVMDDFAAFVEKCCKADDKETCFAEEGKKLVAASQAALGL

**Q.** Which results are given for `CN(C)/N=N/c1[nH]cnc1C(N)=O` [DTIC®, dacarbazine]?
**A.** mean day of survival (MDS) ([1]; 150 mg/kg I.P., qd×5, Group 7 (n=8)): 37.6 days; tumor growth delay (TGD) ([1]; 150 mg/kg I.P., qd×5, vs untreated Group 1, not statistically significant): 7.3 days; survivors (FIG. 10 comparison) ([1]; optimal regimen (150 mg/kg qd×5)): 10%

**Q.** Which “CR responses, share of mice” value ([1]; 2 mg/kg p.o., q3d×4) does the source give for `CC[C@@]1(O)C(=O)OCc2c1cc1n(c2=O)Cc2cc3c([N+](=O)[O-])cccc3nc2-1` [9-nitro-camptothecin, 9-nitro-20(S)-camptothecin] here?
**A.** Its value is 40%.

**Q.** What about the “CR responses, share of mice” value ([1]; 4 mg/kg p.o., q3d×4) of the same molecule?
**A.** Its value is 40%.

**Q.** What about the 62-day survival rate [1, 6] of the same molecule?
**A.** Its 62-day survival rate is 70%.

**Q.** And the “62-day survivors (number of 10 mice)” value [1, 6]?
**A.** The value was “seven”.

**Q.** And the “CR responses on Day 62” value [1, 6]?
**A.** The value was 4.

**Q.** And the “PR responses on Day 62” value [1, 6]?
**A.** Its value is 1.

**Q.** What about the “SD/PD responses on Day 62” value [1, 6] of the same molecule?
**A.** Its value is 2.

**Q.** And the tolerability [1, 6]?
**A.** Its tolerability is “well tolerated”.

**Q.** And the “mean day of survival (MDS)” value ([1]; in 3% DMA 2.0 mg/kg p.o., q3d×4, Group 13 (n=3))?
**A.** Its value is 47.6 days.

**Q.** What about the “tumor growth delay (TGD)” value ([1]; in 3% DMA 2.0 mg/kg p.o., q3d×4, vs vehicle control Group 4) of the same molecule?
**A.** Its value is 21.6 days.

**Q.** What about the 62-day survival rate [1, 7] of the same molecule?
**A.** The 62-day survival rate was 70%.

**Q.** What about the “62-day survivors (number of 10 mice)” value [1, 7] of the same molecule?
**A.** Its value is “seven”.

**Q.** What about the “CR responses on Day 62” value [1, 7] of the same molecule?
**A.** Its value is 4.

**Q.** What about the “SD/PD responses on Day 62” value [1, 7] of the same molecule?
**A.** The value was 3.

**Q.** What about the tolerability [1, 7] of the same molecule?
**A.** Its tolerability is “well tolerated”.

**Q.** What about the “mean day of survival (MDS)” value ([1]; in 3% DMA 4.0 mg/kg p.o., q3d×4, Group 12 (n=3)) of the same molecule?
**A.** The value was 45.3 days.

**Q.** What about the “tumor growth delay (TGD)” value ([1]; in 3% DMA 4.0 mg/kg p.o., q3d×4, vs vehicle control Group 4) of the same molecule?
**A.** Its value is 19.3 days.

**Q.** What does the source list for `CC[C@@](O)(C(=O)[O-])c1cc2n(c(=O)c1CO)Cc1cc3ccccc3nc1-2.[Na+]` [Sodium camptothecin]?
**A.** side effects ([2]; administered via i.v.): unpredictable side effects such as myelosuppression and hemorrhagic cystitis; antitumor activity in clinical trials ([2]; solubilized by sodium hydroxide in water, early 70's): antitumor activity

**Q.** For `CC[C@@]1(O)C(=O)OCc2c1cc1n(c2=O)Cc2cc3ccccc3nc2-1` [camptothecin, 20(S)-camptothecin], which “affinity of HSA for carboxylate form versus α-hydroxy lactone form” value [3] is on record?
**A.** The value was 150 fold.

**Q.** And the “% α-hydroxy lactone at equilibrium” value [4]?
**A.** The value was 0.2%.

**Q.** What about the “half-life of lactone ring opening” value [4] of the same molecule?
**A.** The value was 11 min.

**Q.** And the “equilibrium α-hydroxy lactone concentration” value [5]?
**A.** The value was 5.3%.

**Q.** What about the half-life of lactone [5] of the same molecule?
**A.** The half-life of lactone was 22 min.

**Q.** What does the source list for `CC[C@@]1(O)C(=O)OCc2c1cc1n(c2=O)Cc2cc3c(CN(C)C)c(O)ccc3nc2-1` [HYCAMTIN®, topotecan]?
**A.** 62-day survivors (number of 10 mice) ([1]; 10 mg/kg I.P., q4d×4): one; mean day of survival (MDS) ([1]; 10 mg/kg I.P., q4d×4, Group 6 (n=9)): 46.7 days; tumor growth delay (TGD) ([1]; 10 mg/kg I.P., q4d×4, vs untreated Group 1): 16.4 days; survivors (FIG. 10 comparison) ([1]; optimal regimen (10 mg/kg q4d×4)): 0%

**Q.** For `CCc1c2c(nc3ccc(OC(=O)N4CCC(N5CCCCC5)CC4)cc13)-c1cc3c(c(=O)n1C2)COC(=O)[C@]3(O)CC` [CAMPTOSAR®, irinotecan], which “62-day survivors (number of 10 mice)” value ([1]; 100 mg/kg I.P., qwk×3) is on record?
**A.** Its value is “one”.

**Q.** And the “mean day of survival (MDS)” value ([1]; 100 mg/kg I.P., qwk×3, Group 5 (n=9))?
**A.** Its value is 47.3 days.

**Q.** And the “tumor growth delay (TGD)” value ([1]; 100 mg/kg I.P., qwk×3, vs untreated Group 1)?
**A.** The value was 17 days.

**Q.** What about the “survivors (FIG. 10 comparison)” value ([1]; optimal regimen (100 mg/kg qwk×3)) of the same molecule?
**A.** The value was 0%.

Reference: patent US6497896B2, “Method for administering camptothecins via injection of a pharmaceutical composition comprising microdroplets containing a camptothecin” (priority 2001, dated 2002)
